The record followed here is patent US8193189B2, “Quinoxaline derivatives as tyrosine kinase activity inhibitors” (Novartis AG, priority 2007, dated 2012).

For test [1], the system named is JAK/STAT pathway (JAK1/JAK2-dependent nuclear translocation of STAT1-GFP). Nature of the test: Inhibition of the JAK/STAT pathway: IFN-γ stimulated nuclear translocation of STAT1-GFP in HT1080 fibrosarcoma cells. The format is cell-based. Particulars: Homo sapiens, HT-1080; HT1080 STAT1-GFP cells, 100 ng/ml IFN-γ 2 hours, compound added 30 min before; read-out: STAT1translo IC50. An outline of the steps:
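HT1080 cells stably expressing STAT1-GFP, compounds added 30 min before IFN-γ stimulation at final 10 μM down to 0.003 μM (0.1% DMSO). Nuclear-cytoplasmic GFP intensity differential quantified by automated imaging with Hoechst nuclear mask, ≥1000 cells per well, averaged per well.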

The target of another test is T1, GST-TYK2(888-1187) (Homo sapiens, UniProt P29597).
T1 construct: GST-TYK2(888-1187); made in house
T1 sequence (P29597 888-1187): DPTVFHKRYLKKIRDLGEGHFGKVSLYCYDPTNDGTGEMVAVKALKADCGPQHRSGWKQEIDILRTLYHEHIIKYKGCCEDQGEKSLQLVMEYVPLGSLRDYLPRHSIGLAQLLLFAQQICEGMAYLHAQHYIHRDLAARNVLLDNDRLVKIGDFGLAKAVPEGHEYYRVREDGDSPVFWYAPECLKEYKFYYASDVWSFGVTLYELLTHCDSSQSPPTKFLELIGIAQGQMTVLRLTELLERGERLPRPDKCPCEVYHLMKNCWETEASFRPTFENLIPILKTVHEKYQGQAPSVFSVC
Nature of the test: EPK JAK-family kinases profiling assay (Caliper mobility shift), TYK2. The settings on record: ATP 30 μM, 40 nM kinase. The format is biochemical. The text has this: All four kinases of the JAK-family kinases were used as purified recombinant GST-fusion proteins, containing the active kinase domains. GST-JAK1(866-1154), GST-JAK3(811-1124), and GST-TYK2(888-1187) were expressed and purified by affinity chromatography at the EPK biology unit. GST-JAK2(808-1132) was purchased from Invitrogen (Carlsbad, USA, #4288).
The kinase assays were based on the Caliper mobility shift assay using the LabChip 3000 systems. This technology is similar to capillary electrophoresis and uses charge driven separation of substrate and product in a microfluidic chip.
All kinase reactions were performed in 384 well microtiter plates in a total reaction volume of 18 μl. The assay plates were prepared with 0.1 μl per well of test compound in the appropriate test concentration, as described under the section “preparation of compound dilutions”. The reactions were started by combining 9 μl of substrate mix (consisting of peptide and ATP) with 9 μl of kinase dilution. The reactions were incubated for 60 minutes at 30° C. and stopped by adding 70 μl of stop buffer (100 mM Hepes, 5% DMSO, 0.1% Coating reagent, 10 mM EDTA, 0.015% Brij 35).
Fluorescently labeled synthetic peptides were used as substrates in all reactions. […] Specific assay conditions are described in Table 1:
The terminated reactions were transferred to the Caliper LabChip 3000 reader and the turnover of each reaction was measured by determining the substrate/product ratio.
Test compounds were dissolved in DMSO (10 mM) and transferred into 1.4 mL flat bottom or V-shaped Matrix tubes carrying a unique 2D matrix chip by individual compound hubs. The numbers of these chips were distinctively linked to the individual compound identification numbers. The stock solutions were stored at −20° C. if not used immediately. For the test procedure the vials were defrosted and identified by a scanner whereby a working sheet was generated that guided the subsequent working steps.
Compound dilutions were made in 96 well plates. This format enabled the assay of maximally 40 individual test compounds at 8 concentrations (single points) including 4 reference compounds. The dilution protocol included the production of pre-dilution plates, master plates and assay plates:
Pre-dilution plates: 96 polypropylene well plates were used as pre-dilution plates. A total of 4 pre-dilution plates were prepared including 10 test compounds each on the plate positions A1-A10, one standard compound at A11 and one DMSO control at A12. All dilution steps were done on a HamiltonSTAR robot.
Master plates: 100 μL of individual compound dilutions including standard compound and controls of the 4 “pre-dilution plates” were transferred into a 384 “master plate” including the following concentrations 1′820, 564, 182, 54.6, 18.2, 5.46, 1.82 and 0.546 μM, respectively in 90% of DMSO.
Assay plates: Identical assay plates were then prepared by pipetting 100 nL each of compound dilutions of the master plates into 384-well “assay plates”. […] The preparation of the master plates were handled by the Matrix PlateMate Plus robot and replication of assay plates by the HummingBird robot.

The target in another test is T2, GST-JAK1(866-1154) (Homo sapiens, UniProt P23458).
T2 construct: GST-JAK1(866-1154); made in house
The experiment in a line: EPK JAK-family kinases profiling assay (Caliper mobility shift), JAK1. The format is biochemical. Particulars: ATP 40 μM, 50 nM kinase. An outline of the steps: (§1)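 Turnover was read as substrate/product ratio after mobility-shift capillary-like separation of each reaction, run for 60 min at 30 °C with GST-tagged kinase domain, labelled peptide and ATP, and terminated with EDTA stop buffer.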

Another test deals with T3, GST-JAK2(808-1132) (Homo sapiens, UniProt O60674).
T3 construct: GST-JAK2(808-1132); purchased Invitrogen (Carlsbad, USA) #4288
Nature of the test: EPK JAK-family kinases profiling assay (Caliper mobility shift), JAK2. The format is biochemical. The settings on record: ATP 20 μM, 1.8 nM kinase. The essentials: as §1

T3 sequence (O60674 808-1132): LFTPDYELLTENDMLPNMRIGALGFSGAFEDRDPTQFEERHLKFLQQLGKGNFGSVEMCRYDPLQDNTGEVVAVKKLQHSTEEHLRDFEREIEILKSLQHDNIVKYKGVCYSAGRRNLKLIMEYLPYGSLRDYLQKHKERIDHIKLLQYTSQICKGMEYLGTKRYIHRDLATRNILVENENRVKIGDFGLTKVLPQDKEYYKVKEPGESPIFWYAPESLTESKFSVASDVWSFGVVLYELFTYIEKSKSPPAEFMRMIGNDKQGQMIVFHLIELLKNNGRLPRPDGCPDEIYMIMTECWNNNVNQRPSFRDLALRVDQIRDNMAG
T2 sequence (P23458 866-1154): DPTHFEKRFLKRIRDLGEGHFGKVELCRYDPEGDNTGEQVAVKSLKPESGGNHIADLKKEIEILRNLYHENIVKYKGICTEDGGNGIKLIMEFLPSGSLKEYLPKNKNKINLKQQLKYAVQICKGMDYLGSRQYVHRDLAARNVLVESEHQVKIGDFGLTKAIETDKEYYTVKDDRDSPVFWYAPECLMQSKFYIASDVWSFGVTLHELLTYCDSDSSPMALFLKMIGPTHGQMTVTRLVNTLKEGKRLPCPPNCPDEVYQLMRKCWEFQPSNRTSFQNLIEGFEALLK

In general, IC50 refers to the concentration that gives 50% inhibition. For the molecule `c1cc(-c2ccc(CN3CCOCC3)cc2)c2nc(-c3cnn(C4CCNCC4)c3)cnc2c1` [Example 150, 8-(4-Morpholin-4-ylmethyl-phenyl)-2-(1-piperidin-4-yl-1H-pyrazol-4-yl)-quinoxaline], the half-maximal inhibitory concentration (IC50) in test [1] was 4280 nM; on GST-TYK2(888-1187) it was 830 nM; at GST-JAK1(866-1154) it was 830 nM; at GST-JAK2(808-1132) it was 30 nM.
As for `Cc1nn(C2CCN(C(=O)C(C)C)CC2)cc1-c1cnc2cccc(-c3cc(F)c(CN4CCOCC4)c(F)c3)c2n1` [Example 131, 1-(4-{4-[8-(3,5-Difluoro-4-morpholin-4-ylmethyl-phenyl)-quinoxalin-2-yl]-3-methyl-pyrazol-1-yl}-piperidin-1-yl)-2-methyl-propan-1-one], the IC50 is 90 nM in test [1], 33 nM at GST-TYK2(888-1187), 50 nM on GST-JAK1(866-1154) and below 3 nM at GST-JAK2(808-1132).
Turning to `CC(C)(C)OC(=O)N1CCC(n2cc(-c3cnc4cccc(-c5cc(F)c(CN6CCOCC6)c(F)c5)c4n3)cn2)CC1` [Example 136, 4-{4-[8-(3,5-Difluoro-4-morpholin-4-ylmethyl-phenyl)-quinoxalin-2-yl]-pyrazol-1-yl}-piperidine-1-carboxylic acid tert-butyl ester], the IC50 worked out at 532 nM in test [1], 260 nM on GST-TYK2(888-1187), 290 nM at GST-JAK1(866-1154) and 4.6 nM at GST-JAK2(808-1132).
For `CS(=O)(=O)c1ccc(-c2cccc3ncc(-c4cnn(C5CCNCC5)c4)nc23)cc1` [Example 144, 8-(4-Methanesulfonyl-phenyl)-2-(1-piperidin-4-yl-1H-pyrazol-4-yl)-quinoxaline] the same measures were 7660 nM, 970 nM, 960 nM and 25 nM.
For `Fc1cc(-c2cccc3ncc(-c4cnn(CC5CCCNC5)c4)nc23)cc(F)c1CN1CCOCC1` (racemic) [Example 135, (rac)-8-(3,5-Difluoro-4-morpholin-4-ylmethyl-phenyl)-2-(1-piperidin-3-ylmethyl-1H-pyrazol-4-yl)-quinoxaline] the same measures were 1350 nM, 510 nM, 240 nM and 6.1 nM.
Consider `Cc1c(-c2cnc3cccc(-c4cc(F)c(CN5CCOCC5)c(F)c4)c3n2)cnn1C1CCNCC1` [Example 125, 8-(3,5-Difluoro-4-morpholin-4-ylmethyl-phenyl)-2-(5-methyl-1-piperidin-4-yl-1H-pyrazol-4-yl)-quinoxaline], for which the IC50 was 369 nM in test [1], 210 nM on GST-TYK2(888-1187), 310 nM at GST-JAK1(866-1154) and below 3 nM on GST-JAK2(808-1132).
The matching figures for `Cc1cc(-c2cnc3cccc(-c4cc(F)c(CN5CCOCC5)c(F)c4)c3n2)ccc1C(=O)NCCO` [Example 120, 4-[8-(3,5-Difluoro-4-morpholin-4-ylmethyl-phenyl)-quinoxalin-2-yl]-N-(2-hydroxy-ethyl)-2-methyl-benzamide]: 1730 nM, 350 nM, 130 nM and 13 nM.
For `Cc1cc(-c2cccc3ncc(-c4cnn(C5CCNCC5)c4)nc23)ccc1CN1CCOCC1` [Example 146, 8-(3-Methyl-4-morpholin-4-ylmethyl-phenyl)-2-(1-piperidin-4-yl-1H-pyrazol-4-yl)-quinoxaline] the same measures were 3390 nM, 570 nM, 840 nM and 9.2 nM.
`O=C(C1CC1)N1CCC(n2cc(-c3cnc4cccc(-c5cc(F)c(CN6CCOCC6)c(F)c5)c4n3)cn2)CC1` [Example 129, Cyclopropyl-(4-{4-[8-(3,5-difluoro-4-morpholin-4-ylmethyl-phenyl)-quinoxalin-2-yl]-pyrazol-1-yl}-piperidin-1-yl)-methanone]: the IC50 in test [1] is 162 nM; at GST-TYK2(888-1187), 96 nM; at GST-JAK1(866-1154) it was 78 nM; on GST-JAK2(808-1132), below 3 nM.
Consider `Fc1cc(-c2cccc3ncc(-c4cnn(C5CCN(C6CC6)CC5)c4)nc23)cc(F)c1CN1CCOCC1` [Example 128, 2-[1-(1-Cyclopropyl-piperidin-4-yl)-1H-pyrazol-4-yl]-8-(3,5-difluoro-4-morpholin-4-ylmethyl-phenyl)-quinoxaline], for which the IC50 is 196 nM in test [1], 160 nM at GST-TYK2(888-1187), 130 nM on GST-JAK1(866-1154) and below 3 nM on GST-JAK2(808-1132).
The matching figures for `Cc1cc(-c2cccc3ncc(-c4cnn(C5CCNCC5)c4)nc23)ccc1C(=O)N1CCOCC1` [Example 100, {2-Methyl-4-[3-(1-piperidin-4-yl-1H-pyrazol-4-yl)-quinoxalin-5-yl]-phenyl}-morpholin-4-yl-methanone]: 12600 nM, 1200 nM, 1400 nM and 130 nM.
`CN1CCN(c2ccc(-c3cnc4cccc(-c5ccc(CN6CCS(=O)(=O)CC6)cc5)c4n3)cn2)CC1` [Example 109, 8-[4-(1,1-Dioxido-thiomorpholin-4-ylmethyl)-phenyl]-2-[6-(4-methyl-piperazin-1-yl)-pyridin-3-yl]-quinoxaline]: the IC50 in test [1] came to 3060 nM; on GST-TYK2(888-1187), 360 nM; on GST-JAK1(866-1154), 150 nM; on GST-JAK2(808-1132) it was 24 nM.
For `Cc1nn(C2CCNCC2)cc1-c1cnc2cccc(-c3cc(F)c(CN4CCOCC4)c(F)c3)c2n1` [Example 127, 8-(3,5-Difluoro-4-morpholin-4-ylmethyl-phenyl)-2-(3-methyl-1-piperidin-4-yl-1H-pyrazol-4-yl)-quinoxaline] the same measures were 86 nM, 38 nM, 66 nM and below 3 nM.
In the case of `Fc1cc(-c2cccc3ncc(-c4cnn(C5CCCNC5)c4)nc23)cc(F)c1CN1CCOCC1` (racemic) [Example 160, (rac)-8-(3,5-Difluoro-4-morpholin-4-ylmethyl-phenyl)-2-(1-piperidin-3-yl-1H-pyrazol-4-yl)-quinoxaline], the IC50 on GST-TYK2(888-1187) turned out to be 400 nM; on GST-JAK1(866-1154), 360 nM; at GST-JAK2(808-1132) it was 6.4 nM.
The matching figures for `Cc1cc(-c2cccc3ncc(-c4c(C)nn(C5CCNCC5)c4C)nc23)ccc1CN1CCOCC1` [Example 158, 2-(3,5-Dimethyl-1-piperidin-4-yl-1H-pyrazol-4-yl)-8-(3-methyl-4-morpholin-4-ylmethyl-phenyl)-quinoxaline]: above 10000 nM, above 10000 nM and 650 nM.
For `CN1CCN(C(=O)c2cc(-c3cnc4cccc(-c5cc(F)c(CN6CCOCC6)c(F)c5)c4n3)cn2C)CC1` [Example 167, {4-[8-(3,5-Difluoro-4-morpholin-4-ylmethyl-phenyl)-quinoxalin-2-yl]-1-methyl-1H-pyrrol-2-yl}-(4-methyl-piperazin-1-yl)-methanone] the same measures were 180 nM, 53 nM and 8.1 nM.
